Assay results from patent US9821173B2, “Anti-cancer agents and methods of use” (Case Western Reserve University, priority 2013, dated 2017).

Columns and labels:
Assay in all cases: Kinase inhibition screening (Luceome)
Assay type in all cases: biochemical
Details in all cases: 10 μM
[1] = biological target: T1, AMPK-α2 (Homo sapiens, UniProt P54646)
T1 construct: purchased Luceome Biotechnologies (Tucson, Ariz.)
From the text: (§1) It is well established that dysfunctional and unregulated kinase activity plays significant roles in cancer initiation and progression. […] Inspection of the data provides several interesting observations. […] These inhibitory effects at this concentration are consistent with their measured IC50 values that are also in the μM range (Table 1). In addition, several kinases display overlapping inhibitory responses to both gold(I) compounds. Many of these are of particular interest since they are involved in cancer initiation and/or progression. For example, the Aurora kinase family members, Aurora A and Aurora B, as well as the MARK2 and MARK3 kinases function during mitosis to regulate cell division. These kinases are important therapeutic targets as their activities are often deregulated in many types of cancers. Other kinases such as RPS6KA3 and MLK3 are involved in the MAP kinase and JNK pathways which are also important in cancer progression.

[2] = biological target: T2, PKG1 (Homo sapiens, UniProt Q13976)
T2 construct: purchased Luceome Biotechnologies (Tucson, Ariz.)
From the text: as §1

[3] = biological target: T3, AKT2 (Homo sapiens, UniProt P31751)
T3 construct: purchased Luceome Biotechnologies (Tucson, Ariz.)
From the text: as §1

[4] = biological target: T4, PDK1 (Homo sapiens, UniProt O15530)
T4 construct: purchased Luceome Biotechnologies (Tucson, Ariz.)
From the text: as §1

[5] = biological target: T5, SLK (Homo sapiens, UniProt Q9H2G2)
T5 construct: purchased Luceome Biotechnologies (Tucson, Ariz.)
From the text: as §1

[6] = biological target: T6, CLK1 (Homo sapiens, UniProt P49759)
T6 construct: purchased Luceome Biotechnologies (Tucson, Ariz.)
From the text: as §1

[7] = biological target: T7, YES1 (Homo sapiens, UniProt P07947)
T7 construct: purchased Luceome Biotechnologies (Tucson, Ariz.)
From the text: as §1

[8] = biological target: T8, CAM1G (Homo sapiens, UniProt Q96NX5)
T8 construct: purchased Luceome Biotechnologies (Tucson, Ariz.)
From the text: as §1

[9] = biological target: T9, YSK1 (Homo sapiens, UniProt O00506)
T9 construct: purchased Luceome Biotechnologies (Tucson, Ariz.)
From the text: as §1

[10] = biological target: T10, CAMK1D (Homo sapiens, UniProt Q8IU85)
T10 construct: purchased Luceome Biotechnologies (Tucson, Ariz.)
From the text: as §1

[11] = biological target: T11, AURKB (Homo sapiens, UniProt Q96GD4)
T11 construct: purchased Luceome Biotechnologies (Tucson, Ariz.)
From the text: as §1

[12] = biological target: T12, AKT1 (Homo sapiens, UniProt P31749)
T12 construct: purchased Luceome Biotechnologies (Tucson, Ariz.)
From the text: as §1

[13] = biological target: T13, AURKA (Homo sapiens, UniProt O14965)
T13 construct: purchased Luceome Biotechnologies (Tucson, Ariz.)
From the text: as §1

[14] = biological target: T14, PIM1 (Homo sapiens, UniProt P11309)
T14 construct: purchased Luceome Biotechnologies (Tucson, Ariz.)
From the text: as §1

[15] = biological target: T15, PRS6KA1 (Homo sapiens, UniProt Q15418)
T15 construct: purchased Luceome Biotechnologies (Tucson, Ariz.)
From the text: as §1

[16] = biological target: T16, PKD2 (Homo sapiens, UniProt Q9BZL6)
T16 construct: purchased Luceome Biotechnologies (Tucson, Ariz.)
From the text: as §1

[17] = biological target: T17, AURKC (Homo sapiens, UniProt Q9UQB9)
T17 construct: purchased Luceome Biotechnologies (Tucson, Ariz.)
From the text: as §1

[18] = biological target: T18, PKAC-α (Homo sapiens, UniProt P17612)
T18 construct: purchased Luceome Biotechnologies (Tucson, Ariz.)
From the text: as §1

[19] = biological target: T19, RPS6KA4 (Homo sapiens, UniProt O75676)
T19 construct: purchased Luceome Biotechnologies (Tucson, Ariz.)
From the text: as §1

[20] = biological target: T20, CHEK1 (Homo sapiens, UniProt O14757)
T20 construct: purchased Luceome Biotechnologies (Tucson, Ariz.)
From the text: as §1

[21] = biological target: T21, RPS6KA5 (Homo sapiens, UniProt O75582)
T21 construct: purchased Luceome Biotechnologies (Tucson, Ariz.)
From the text: as §1

[22] = biological target: T22, PKC-ε (Homo sapiens, UniProt Q02156)
T22 construct: purchased Luceome Biotechnologies (Tucson, Ariz.)
From the text: as §1

[23] = biological target: T23, VEGFR2 (Homo sapiens, UniProt P35968)
T23 construct: purchased Luceome Biotechnologies (Tucson, Ariz.)
From the text: as §1

[24] = biological target: T24, AKT3 (Homo sapiens, UniProt Q9Y243)
T24 construct: purchased Luceome Biotechnologies (Tucson, Ariz.)
From the text: as §1

[25] = biological target: T25, SYK (Homo sapiens, UniProt P43405)
T25 construct: purchased Luceome Biotechnologies (Tucson, Ariz.)
From the text: as §1

[26] = biological target: T26, FLT1 (Homo sapiens, UniProt P17948)
T26 construct: purchased Luceome Biotechnologies (Tucson, Ariz.)
From the text: as §1

[27] = biological target: T27, SRC (Homo sapiens, UniProt P12931)
T27 construct: purchased Luceome Biotechnologies (Tucson, Ariz.)
From the text: as §1

[28] = biological target: T28, MST2 (Homo sapiens, UniProt Q13188)
T28 construct: purchased Luceome Biotechnologies (Tucson, Ariz.)
From the text: as §1

[29] = biological target: T29, CAMKK1 (Homo sapiens, UniProt Q8N5S9)
T29 construct: purchased Luceome Biotechnologies (Tucson, Ariz.)
From the text: as §1

[30] = biological target: T30, SNF1LK2 (Homo sapiens, UniProt Q9H0K1)
T30 construct: purchased Luceome Biotechnologies (Tucson, Ariz.)
From the text: as §1

[31] = biological target: T31, PAK1 (Homo sapiens, UniProt Q13153)
T31 construct: purchased Luceome Biotechnologies (Tucson, Ariz.)
From the text: as §1

[32] = biological target: T32, RPS6KA3 (Homo sapiens, UniProt P51812)
T32 construct: purchased Luceome Biotechnologies (Tucson, Ariz.)
From the text: as §1

[33] = biological target: T33, MET (Homo sapiens, UniProt P08581)
T33 construct: purchased Luceome Biotechnologies (Tucson, Ariz.)
From the text: as §1

[34] = biological target: T34, CAMKD2B (Homo sapiens, UniProt Q13554)
T34 construct: purchased Luceome Biotechnologies (Tucson, Ariz.)
From the text: as §1

[35] = biological target: T35, CLK2 (Homo sapiens, UniProt P49760)
T35 construct: purchased Luceome Biotechnologies (Tucson, Ariz.)
From the text: as §1

[36] = biological target: T36, PKC-δ (Homo sapiens, UniProt Q05655)
T36 construct: purchased Luceome Biotechnologies (Tucson, Ariz.)
From the text: as §1

[37] = biological target: T37, CAMKK2 (Homo sapiens, UniProt Q96RR4)
T37 construct: purchased Luceome Biotechnologies (Tucson, Ariz.)
From the text: as §1

[38] = biological target: T38, PIM2 (Homo sapiens, UniProt Q9P1W9)
T38 construct: purchased Luceome Biotechnologies (Tucson, Ariz.)
From the text: as §1

[39] = biological target: T39, CAMK2D (Homo sapiens, UniProt Q13557)
T39 construct: purchased Luceome Biotechnologies (Tucson, Ariz.)
From the text: as §1

T24 sequence (Q9Y243 whole entry): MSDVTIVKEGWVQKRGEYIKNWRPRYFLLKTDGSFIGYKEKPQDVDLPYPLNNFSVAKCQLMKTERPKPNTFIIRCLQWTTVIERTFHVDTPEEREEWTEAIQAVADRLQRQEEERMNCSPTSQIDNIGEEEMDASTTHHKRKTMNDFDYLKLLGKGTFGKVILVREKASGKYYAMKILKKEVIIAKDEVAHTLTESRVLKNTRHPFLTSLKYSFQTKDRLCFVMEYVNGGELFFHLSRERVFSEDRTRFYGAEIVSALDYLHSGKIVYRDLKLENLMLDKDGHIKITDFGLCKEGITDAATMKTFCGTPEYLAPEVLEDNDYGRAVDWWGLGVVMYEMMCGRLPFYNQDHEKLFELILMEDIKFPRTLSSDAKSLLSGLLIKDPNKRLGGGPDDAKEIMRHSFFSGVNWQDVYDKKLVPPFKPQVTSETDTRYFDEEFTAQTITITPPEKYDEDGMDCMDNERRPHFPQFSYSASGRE
T5 sequence (Q9H2G2 whole entry): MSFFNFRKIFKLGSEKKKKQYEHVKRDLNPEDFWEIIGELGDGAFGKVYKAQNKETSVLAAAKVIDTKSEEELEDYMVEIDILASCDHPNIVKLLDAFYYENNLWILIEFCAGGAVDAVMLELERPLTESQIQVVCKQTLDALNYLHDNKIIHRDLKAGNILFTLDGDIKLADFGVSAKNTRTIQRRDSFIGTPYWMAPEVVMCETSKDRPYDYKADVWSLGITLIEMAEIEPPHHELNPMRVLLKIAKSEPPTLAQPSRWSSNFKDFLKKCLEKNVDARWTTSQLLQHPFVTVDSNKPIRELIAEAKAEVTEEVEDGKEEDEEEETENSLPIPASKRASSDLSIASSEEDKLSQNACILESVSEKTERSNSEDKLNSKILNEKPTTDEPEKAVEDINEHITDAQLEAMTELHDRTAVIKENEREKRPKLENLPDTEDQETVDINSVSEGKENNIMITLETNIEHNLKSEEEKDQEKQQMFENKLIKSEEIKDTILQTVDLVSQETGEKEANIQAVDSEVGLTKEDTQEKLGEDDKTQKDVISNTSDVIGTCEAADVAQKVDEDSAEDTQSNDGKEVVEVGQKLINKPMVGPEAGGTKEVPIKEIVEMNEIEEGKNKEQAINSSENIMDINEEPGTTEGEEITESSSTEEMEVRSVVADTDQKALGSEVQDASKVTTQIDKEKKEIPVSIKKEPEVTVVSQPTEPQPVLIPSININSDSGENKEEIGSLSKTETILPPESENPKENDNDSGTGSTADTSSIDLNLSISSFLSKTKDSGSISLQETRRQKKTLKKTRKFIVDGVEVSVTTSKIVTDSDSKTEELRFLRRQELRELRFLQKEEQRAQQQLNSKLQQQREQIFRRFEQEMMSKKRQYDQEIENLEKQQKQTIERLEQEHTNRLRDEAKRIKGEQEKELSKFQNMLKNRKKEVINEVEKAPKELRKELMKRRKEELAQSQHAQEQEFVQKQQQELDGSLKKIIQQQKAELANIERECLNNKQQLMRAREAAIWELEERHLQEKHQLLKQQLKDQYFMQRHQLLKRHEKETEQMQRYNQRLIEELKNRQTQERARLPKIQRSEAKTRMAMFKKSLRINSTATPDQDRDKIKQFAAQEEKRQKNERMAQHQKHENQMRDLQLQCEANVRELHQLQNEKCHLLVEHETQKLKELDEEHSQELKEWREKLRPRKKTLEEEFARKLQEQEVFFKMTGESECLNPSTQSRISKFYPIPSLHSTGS
T21 sequence (O75582 whole entry): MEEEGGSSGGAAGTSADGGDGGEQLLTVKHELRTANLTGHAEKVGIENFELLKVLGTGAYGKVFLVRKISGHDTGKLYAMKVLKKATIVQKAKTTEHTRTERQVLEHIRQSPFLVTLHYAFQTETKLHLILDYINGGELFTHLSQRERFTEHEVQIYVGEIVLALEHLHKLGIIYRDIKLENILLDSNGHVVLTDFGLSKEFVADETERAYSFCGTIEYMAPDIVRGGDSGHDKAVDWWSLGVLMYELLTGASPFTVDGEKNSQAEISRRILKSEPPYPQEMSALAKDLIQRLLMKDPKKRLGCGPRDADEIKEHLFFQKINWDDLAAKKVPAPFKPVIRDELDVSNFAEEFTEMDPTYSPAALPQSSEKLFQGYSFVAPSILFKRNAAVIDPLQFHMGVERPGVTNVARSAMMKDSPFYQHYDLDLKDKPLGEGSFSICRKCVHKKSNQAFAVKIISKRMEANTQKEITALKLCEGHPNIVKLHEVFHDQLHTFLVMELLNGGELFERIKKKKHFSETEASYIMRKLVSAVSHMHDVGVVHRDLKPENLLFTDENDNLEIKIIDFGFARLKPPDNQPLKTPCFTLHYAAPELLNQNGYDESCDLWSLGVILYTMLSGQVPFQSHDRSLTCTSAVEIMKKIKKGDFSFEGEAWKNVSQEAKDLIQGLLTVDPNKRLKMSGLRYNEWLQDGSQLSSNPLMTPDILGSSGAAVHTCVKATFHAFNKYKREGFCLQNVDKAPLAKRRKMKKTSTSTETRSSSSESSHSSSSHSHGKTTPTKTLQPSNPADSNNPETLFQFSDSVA
T11 sequence (Q96GD4 whole entry): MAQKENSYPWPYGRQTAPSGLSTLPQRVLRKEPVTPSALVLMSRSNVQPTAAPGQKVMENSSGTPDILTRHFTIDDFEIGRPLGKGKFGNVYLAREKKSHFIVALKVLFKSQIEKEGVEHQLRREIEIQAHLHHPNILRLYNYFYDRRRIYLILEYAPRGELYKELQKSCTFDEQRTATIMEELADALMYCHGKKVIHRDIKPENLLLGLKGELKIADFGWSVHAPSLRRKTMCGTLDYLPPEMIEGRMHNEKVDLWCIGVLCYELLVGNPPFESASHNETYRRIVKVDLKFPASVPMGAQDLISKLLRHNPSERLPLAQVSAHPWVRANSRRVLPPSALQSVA
T31 sequence (Q13153 whole entry): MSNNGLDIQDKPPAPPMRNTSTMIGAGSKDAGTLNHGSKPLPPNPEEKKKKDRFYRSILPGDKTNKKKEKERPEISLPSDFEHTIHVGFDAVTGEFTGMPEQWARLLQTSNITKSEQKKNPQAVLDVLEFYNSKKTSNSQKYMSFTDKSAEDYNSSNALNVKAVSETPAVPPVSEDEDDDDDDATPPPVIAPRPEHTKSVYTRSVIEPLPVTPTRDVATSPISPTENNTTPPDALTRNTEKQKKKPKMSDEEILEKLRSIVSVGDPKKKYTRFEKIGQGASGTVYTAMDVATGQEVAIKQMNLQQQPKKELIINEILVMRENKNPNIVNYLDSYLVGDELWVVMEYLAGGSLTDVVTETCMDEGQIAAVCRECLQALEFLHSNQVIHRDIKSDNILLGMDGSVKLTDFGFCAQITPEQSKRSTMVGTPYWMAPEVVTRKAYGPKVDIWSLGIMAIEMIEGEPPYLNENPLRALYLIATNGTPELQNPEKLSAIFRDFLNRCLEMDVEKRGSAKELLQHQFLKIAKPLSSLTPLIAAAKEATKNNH
T23 sequence (P35968 20-1356): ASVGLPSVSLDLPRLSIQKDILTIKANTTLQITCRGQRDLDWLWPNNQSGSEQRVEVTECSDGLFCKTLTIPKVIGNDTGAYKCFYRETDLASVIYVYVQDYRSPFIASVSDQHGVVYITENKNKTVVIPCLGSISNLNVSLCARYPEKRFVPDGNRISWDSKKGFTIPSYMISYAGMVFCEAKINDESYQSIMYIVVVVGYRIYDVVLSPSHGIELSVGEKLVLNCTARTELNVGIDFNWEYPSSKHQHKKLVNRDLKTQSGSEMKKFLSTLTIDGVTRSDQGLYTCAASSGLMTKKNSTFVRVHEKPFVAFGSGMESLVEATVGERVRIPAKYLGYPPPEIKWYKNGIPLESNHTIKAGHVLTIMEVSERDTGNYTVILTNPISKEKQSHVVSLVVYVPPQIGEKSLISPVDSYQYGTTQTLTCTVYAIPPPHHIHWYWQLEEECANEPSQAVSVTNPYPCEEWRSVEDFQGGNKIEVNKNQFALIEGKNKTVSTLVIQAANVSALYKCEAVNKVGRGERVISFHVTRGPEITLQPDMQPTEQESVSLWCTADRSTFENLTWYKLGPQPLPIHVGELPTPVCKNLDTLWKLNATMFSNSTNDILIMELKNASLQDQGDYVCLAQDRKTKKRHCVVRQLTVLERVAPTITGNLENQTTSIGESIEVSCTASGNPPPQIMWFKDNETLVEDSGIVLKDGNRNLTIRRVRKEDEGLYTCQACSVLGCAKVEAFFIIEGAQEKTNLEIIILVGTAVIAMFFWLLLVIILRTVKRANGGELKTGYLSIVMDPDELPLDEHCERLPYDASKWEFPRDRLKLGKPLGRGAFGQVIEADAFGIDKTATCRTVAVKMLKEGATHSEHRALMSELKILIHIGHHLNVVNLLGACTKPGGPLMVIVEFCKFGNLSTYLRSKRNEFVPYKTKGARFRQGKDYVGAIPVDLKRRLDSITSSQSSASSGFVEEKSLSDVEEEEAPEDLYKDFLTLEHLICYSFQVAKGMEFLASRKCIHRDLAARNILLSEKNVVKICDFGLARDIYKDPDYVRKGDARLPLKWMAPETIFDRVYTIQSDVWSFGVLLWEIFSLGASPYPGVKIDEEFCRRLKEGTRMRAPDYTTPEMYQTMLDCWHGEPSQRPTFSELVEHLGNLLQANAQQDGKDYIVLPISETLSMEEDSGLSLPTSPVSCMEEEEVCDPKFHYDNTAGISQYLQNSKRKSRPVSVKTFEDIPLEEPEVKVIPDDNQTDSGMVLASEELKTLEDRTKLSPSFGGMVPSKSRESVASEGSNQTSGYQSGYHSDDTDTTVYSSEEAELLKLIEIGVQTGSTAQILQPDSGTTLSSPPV
T14 sequence (P11309 whole entry): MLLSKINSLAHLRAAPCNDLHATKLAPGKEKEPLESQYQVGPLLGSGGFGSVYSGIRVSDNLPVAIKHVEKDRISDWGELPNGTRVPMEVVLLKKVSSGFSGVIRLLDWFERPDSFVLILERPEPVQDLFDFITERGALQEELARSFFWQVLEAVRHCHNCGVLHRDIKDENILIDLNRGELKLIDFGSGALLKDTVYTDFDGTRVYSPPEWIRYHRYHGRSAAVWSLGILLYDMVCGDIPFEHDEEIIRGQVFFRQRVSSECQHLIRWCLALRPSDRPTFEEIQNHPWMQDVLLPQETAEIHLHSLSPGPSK

Structure (SMILES) | % Inhibition AMPK-α2 [1] | % Inhibition PKG1 [2] | % Inhibition AKT2 [3] | % Inhibition PDK1 [4] | % Inhibition SLK [5] | % Inhibition CLK1 [6] | % Inhibition YES1 [7] | % Inhibition CAM1G [8] | % Inhibition YSK1 [9] | % Inhibition CAMK1D [10] | % Inhibition AURKB [11] | % Inhibition AKT1 [12] | % Inhibition AURKA [13] | % Inhibition PIM1 [14] | % Inhibition PRS6KA1 [15] | % Inhibition PKD2 [16] | % Inhibition AURKC [17] | % Inhibition PKAC-α [18] | % Inhibition RPS6KA4 [19] | % Inhibition CHEK1 [20] | also measured
CC(C)(C)OC(=O)n1ccc2c[c]([Au-][P+](c3ccccc3)(c3ccccc3)c3ccccc3)ccc21 [Compound 3, 5-{Triphenylphosphine aurate(I)}-tert-butyl1H-indole-1-carboxylate] | 0% | 5.4% | 25.8% | 17.4% | 0% | 0% | 0% | 0% | 0% | 0% | 11.1% | 0% | 26.7% | 0% | 0% | 0% | 23.9% | 0% | 1.0% | 0% | % Inhibition RPS6KA5 [21]: 0%; % Inhibition PKC-ε [22]: 0%; % Inhibition VEGFR2 [23]: 0%; % Inhibition AKT3 [24]: 0%; % Inhibition SYK [25]: 21.6%; % Inhibition FLT1 [26]: 18.9%; % Inhibition SRC [27]: 14.3%; % Inhibition MST2 [28]: 0%; % Inhibition CAMKK1 [29]: 0%; % Inhibition SNF1LK2 [30]: 0%; % Inhibition PAK1 [31]: 0%; % Inhibition RPS6KA3 [32]: 16.7%; % Inhibition MET [33]: 15.1%; % Inhibition CAMKD2B [34]: 0%; % Inhibition CLK2 [35]: 0%; % Inhibition PKC-δ [36]: 0%; % Inhibition CAMKK2 [37]: 0%; % Inhibition PIM2 [38]: 0%; % Inhibition CAMK2D [39]: 0%
CC(C)(C)OC(=O)n1ccc2c[c]([Au-][P+](C3CCCCC3)(C3CCCCC3)C3CCCCC3)ccc21 [Compound 4, 5-{Tricyclohexylphosphine aurate(I)}-tert-butyl1H-indole-1-carboxylate] | 0% | 3.2% | 33.6% | 24.3% | 19.6% | 0% | 31.7% | 0% | 20.9% | 0% | 24.5% | 0% | 41.7% | 10.6% | 0% | 3.8% | 35.0% | 12.4% | 21.8% | 0% | % Inhibition RPS6KA5 [21]: 5.0%; % Inhibition PKC-ε [22]: 5.9%; % Inhibition VEGFR2 [23]: 5.8%; % Inhibition AKT3 [24]: 0%; % Inhibition SYK [25]: 40.7%; % Inhibition FLT1 [26]: 9.4%; % Inhibition SRC [27]: 5.2%; % Inhibition MST2 [28]: 0%; % Inhibition CAMKK1 [29]: 0%; % Inhibition SNF1LK2 [30]: 32.9%; % Inhibition PAK1 [31]: 0%; % Inhibition RPS6KA3 [32]: 34.9%; % Inhibition MET [33]: 23.3%; % Inhibition CAMKD2B [34]: 0%; % Inhibition CLK2 [35]: 0%; % Inhibition PKC-δ [36]: 3.8%; % Inhibition CAMKK2 [37]: 7.9%; % Inhibition PIM2 [38]: 8.7%; % Inhibition CAMK2D [39]: 0%
